# Key:
# [1] = target: T1, Endoplasmin (Canis lupus familiaris, UniProt P41148); assay: Inhibition of GST-tagged dog GRP94 (69 to 337 residues) expressed in Escherichia coli BL21 (DE3) measured after 4 hrs by fluorescent polarization assay
# [2] = Lipophilicity, logD of compound at pH 7.4; format: physicochemical; details: buffer
# [3] = Aqueous solubility of compound; format: physicochemical; details: buffer
# [4] = Permeability of compound at pH 7.4; format: ADME; details: not told, read-out: permeability
# [5] = Metabolic stability in mouse microsomes assessed as half life in presence of NADPH at 10 uM measured after 120 mins by LC-MS/MS analysis; format: ADME, Microsome
# [6] = Metabolic stability in mouse microsomes assessed as clearance in presence of NADPH at 10 uM measured after 120 mins by LC-MS/MS analysis; format: ADME, Microsome; details: 2 h
# [7] = Metabolic stability in human microsomes assessed as half life in presence of NADPH at 10 uM measured after 120 mins by LC-MS/MS analysis; format: ADME, Microsome
# [8] = Metabolic stability in human microsomes assessed as clearance in presence of NADPH at 10 uM measured after 120 mins by LC-MS/MS analysis; format: ADME, Microsome; details: 2 h
# [9] = Tmax in Sprague-Dawley rat at 10 mg/kg, iv measured after 24 hrs by LC-MS/MS analysis; format: ADME, organism-based; details: in vivo
# [10] = Tmax in Sprague-Dawley rat at 40 mg/kg, po measured after 24 hrs by LC-MS/MS analysis; format: ADME, organism-based; details: in vivo
# [11] = Half life in Sprague-Dawley rat at 10 mg/kg, iv measured after 24 hrs by LC-MS/MS analysis; format: ADME, organism-based; details: in vivo
# [12] = Half life in Sprague-Dawley rat at 40 mg/kg, po measured after 24 hrs by LC-MS/MS analysis; format: ADME, organism-based; details: in vivo
# [13] = Cmax in Sprague-Dawley rat at 10 mg/kg, iv measured after 24 hrs by LC-MS/MS analysis; format: ADME, organism-based; set-up: dose 10 mg/kg, time 24 hrs, route iv; details: in vivo
# [14] = Cmax in Sprague-Dawley rat at 40 mg/kg, po measured after 24 hrs by LC-MS/MS analysis; format: ADME, organism-based; set-up: time 24 hrs, dose 40 mg/kg, route po; details: in vivo
# [15] = AUC (0 to infinity) in Sprague-Dawley rat at 10 mg/kg, iv measured after 24 hrs by LC-MS/MS analysis; format: ADME, organism-based; set-up: dose 10 mg/kg, time 24 hrs, route iv; details: in vivo
# [16] = AUC (0 to infinity) in Sprague-Dawley rat at 40 mg/kg, po measured after 24 hrs by LC-MS/MS analysis; format: ADME, organism-based; set-up: dose 40 mg/kg, time 24 hrs, route po; details: in vivo
# [17] = Apparent volume of distribution in Sprague-Dawley rat at 10 mg/kg, iv measured after 24 hrs by LC-MS/MS analysis; format: ADME, organism-based; details: in vivo
# [18] = Apparent volume of distribution in Sprague-Dawley rat at 40 mg/kg, po measured after 24 hrs by LC-MS/MS analysis; format: ADME, organism-based; details: in vivo
# [19] = Clearance in Sprague-Dawley rat at 10 mg/kg, iv measured after 24 hrs by LC-MS/MS analysis; format: ADME, organism-based; details: in vivo
# [20] = Clearance in Sprague-Dawley rat at 40 mg/kg, po measured after 24 hrs by LC-MS/MS analysis; format: ADME, organism-based; details: in vivo
# [21] = Oral bioavailability in Sprague-Dawley rat at 40 mg/kg measured after 24 hrs by LC-MS/MS analysis; format: ADME, organism-based; details: in vivo
# [22] = test system: Mus musculus; assay: Toxicity in DSS-induced Ulcerative colitis C57BL/6 mouse model assessed as loss of body weight at 10 to 50 mg/kg, ip measured for 9 days; format: organism-based; details: in vivo, 216 h, dose 10-50 mg/kg, time 9 day
# [23] = test system: Mus musculus; assay: Anti-ulcerative colitis activity against DSS-induced Ulcerative colitis C57BL/6 mouse model assessed as disease activity index at 10 mg/kg, ip measured for 8 days (reference value: 8.37+/-0.3); format: functional; details: time 8 day
# [24] = test system: Mus musculus; assay: Anti-ulcerative colitis activity against DSS-induced Ulcerative colitis C57BL/6 mouse model assessed as disease activity index at 30 mg/kg, ip measured for 8 days (reference value: 8.37+/-0.3); format: functional; details: time 8 day
# [25] = test system: Mus musculus; assay: Anti-ulcerative colitis activity against DSS-induced Ulcerative colitis C57BL/6 mouse model assessed as disease activity index at 50 mg/kg, ip measured for 8 days (reference value: 8.37+/-0.3); format: functional; details: time 8 day
# [26] = target: Endoplasmin (Canis lupus familiaris) (UniProt P41148); details: dose 0.37-10 µM
# Description: Binding affinity to GST-tagged dog GRP94 (69 to 337 residues) expressed in Escherichia coli BL21 (DE3) assessed as association constant at 0.37 to 10 uM measured by BLI assay
# [27] = target: T2, Heat shock protein HSP 90-alpha (Homo sapiens, UniProt P07900); details: dose 1.1-30 µM
# Description: Binding affinity to His-tagged human N-terminal HSP90alpha (1 to 236 residues) expressed in Escherichia coli BL21 (DE3) assessed as association constant at 1.1 to 30 uM measured by BLI assay
# [28] = test system: Mus musculus; assay: Toxicity in DSS-induced Ulcerative colitis C57BL/6 mouse model assessed as effect on liver weight index at 10 to 50 mg/kg, ip measured after 8 days; details: in vivo, 192 h
# [29] = target: T1, Endoplasmin; assay: Binding affinity to GST-tagged dog GRP94 (69 to 337 residues) expressed in Escherichia coli BL21 (DE3) assessed as dissociation rate constant at 0.37 to 10 uM measured by BLI assay
# [30] = target: T2, Heat shock protein HSP 90-alpha; assay: Binding affinity to His-tagged human N-terminal HSP90alpha (1 to 236 residues) expressed in Escherichia coli BL21 (DE3) assessed as dissociation rate constant at 1.1 to 30 uM measured by BLI assay
# [31] = target: Endoplasmin (Homo sapiens, UniProt P14625); assay: Binding affinity to Grp94 (unknown origin) by fluorescent polarization assay
# [32] = target: T2, Heat shock protein HSP 90-alpha; assay: Binding affinity to Hsp90alpha (unknown origin) by fluorescent polarization assay
# T1 sequence (P41148 whole entry, the tested form may be a part): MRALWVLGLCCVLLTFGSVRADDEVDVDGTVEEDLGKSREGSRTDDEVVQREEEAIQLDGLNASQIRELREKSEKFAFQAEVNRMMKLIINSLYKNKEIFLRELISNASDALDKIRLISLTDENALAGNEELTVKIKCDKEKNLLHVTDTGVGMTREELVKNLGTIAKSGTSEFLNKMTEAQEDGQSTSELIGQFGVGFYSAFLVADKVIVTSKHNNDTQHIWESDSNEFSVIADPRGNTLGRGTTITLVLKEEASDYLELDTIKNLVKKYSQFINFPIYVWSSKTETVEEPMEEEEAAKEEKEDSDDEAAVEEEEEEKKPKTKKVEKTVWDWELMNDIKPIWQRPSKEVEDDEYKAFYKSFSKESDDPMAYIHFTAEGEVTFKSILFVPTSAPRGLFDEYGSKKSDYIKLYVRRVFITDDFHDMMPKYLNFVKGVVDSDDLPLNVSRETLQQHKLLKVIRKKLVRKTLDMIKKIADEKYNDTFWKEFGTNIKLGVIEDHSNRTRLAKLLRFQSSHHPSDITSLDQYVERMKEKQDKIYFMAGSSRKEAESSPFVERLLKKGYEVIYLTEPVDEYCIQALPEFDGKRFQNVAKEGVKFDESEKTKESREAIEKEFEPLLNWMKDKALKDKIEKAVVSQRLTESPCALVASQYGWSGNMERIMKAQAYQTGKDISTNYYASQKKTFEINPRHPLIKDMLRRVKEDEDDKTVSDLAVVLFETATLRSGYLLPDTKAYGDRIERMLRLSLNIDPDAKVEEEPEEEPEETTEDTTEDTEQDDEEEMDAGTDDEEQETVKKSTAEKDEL
# Chain of Endoplasmin (Homo sapiens, UniProt P14625) (P14625 whole entry): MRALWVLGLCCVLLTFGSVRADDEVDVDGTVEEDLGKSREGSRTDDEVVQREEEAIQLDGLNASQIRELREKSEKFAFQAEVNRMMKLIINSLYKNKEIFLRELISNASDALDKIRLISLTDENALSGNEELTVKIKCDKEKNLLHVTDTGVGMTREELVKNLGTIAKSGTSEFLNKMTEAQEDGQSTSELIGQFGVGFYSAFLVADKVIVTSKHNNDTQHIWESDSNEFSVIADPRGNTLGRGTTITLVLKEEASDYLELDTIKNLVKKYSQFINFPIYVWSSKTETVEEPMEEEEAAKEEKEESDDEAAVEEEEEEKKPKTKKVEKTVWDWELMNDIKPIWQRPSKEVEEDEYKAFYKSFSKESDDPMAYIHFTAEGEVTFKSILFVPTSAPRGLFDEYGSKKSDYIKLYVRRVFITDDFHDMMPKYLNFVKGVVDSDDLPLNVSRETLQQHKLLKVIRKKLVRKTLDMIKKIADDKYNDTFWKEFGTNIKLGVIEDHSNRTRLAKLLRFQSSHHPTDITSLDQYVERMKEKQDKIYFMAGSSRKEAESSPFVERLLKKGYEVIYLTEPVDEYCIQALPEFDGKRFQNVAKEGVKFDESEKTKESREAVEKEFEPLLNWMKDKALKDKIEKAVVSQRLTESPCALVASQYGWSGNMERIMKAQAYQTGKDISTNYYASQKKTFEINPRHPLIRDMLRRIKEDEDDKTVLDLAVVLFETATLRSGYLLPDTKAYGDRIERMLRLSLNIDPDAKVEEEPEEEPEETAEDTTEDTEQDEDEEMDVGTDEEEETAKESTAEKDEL
# Chain of Endoplasmin (Canis lupus familiaris) (P41148 whole entry): as the sequence (P41148 whole entry, the tested form may be a part) above
compound,measurement,setting,value
CN(C)CC#Cc1ccc(N[C@H]2CC[C@H](O)CC2)c(C(N)=O)c1,IC50,[1],62600 nM
CC(C)c1cc(C(=O)N2Cc3ccc(CN4CCN(C)CC4)cc3C2)c(O)cc1O [ONALESPIB],IC50,[1],13 nM
CCCCC#Cc1ccc(NC2CCN(C(=O)CN(C)C)CC2)c(C(N)=O)c1,IC50,[1],1110 nM
CCCCC#Cc1ccc(NCCO)c(C(N)=O)c1,IC50,[1],6840 nM
CC(C)c1ccc(-c2ccc(N[C@H]3CC[C@H](O)CC3)c(C(N)=O)c2)cc1,IC50,[1],20 nM
same,logD,[2],4.59
same,solubility,[3],3.9 µg/mL
same,Papp,[4],99.2 ×10⁻⁶ cm/s
same,half-life at 10 µM,[5],1.04 h
same,CL,[6],13.5 µL/min/mg
same,half-life at 10 µM,[7],4.28 h
same,CL,[8],25.5 µL/min/mg
CCCCC#Cc1ccc(N[C@H]2CC[C@H](O)CC2)c(C(N)=O)c1,IC50,[1],60 nM
same,logD,[2],3.69
same,solubility,[3],11 µg/mL
same,Papp,[4],97.9 ×10⁻⁶ cm/s
same,Tmax,[9],3 min
same,Tmax,[10],0.38 h
same,t1/2,[11],15.25 h
same,t1/2,[12],4.69 h
same,Cmax,[13],2410 ng/mL
same,Cmax,[14],600 ng/mL
same,AUC,[15],1.51 µg/mL/h
same,AUC,[16],0.95 µg/mL/h
same,Vz,[17],1.47 L/kg
same,Vz,[18],2.81 L/kg
same,CL,[19],111 mL/min/kg
same,CL,[20],72.8 mL/min/kg
same,bioavailability,[21],15.7%
same,half-life at 10 µM,[5],1.8 h
same,CL,[6],11 µL/min/mg
same,half-life at 10 µM,[7],5.78 h
same,CL,[8],12.8 µL/min/mg
same,Activity,[22],Non-Toxic
same,Activity_index,[23],3.04
same,Activity_index,[24],2.3
same,Activity_index,[25],1.76
same,Ka,[26],2.56 10^5/M/s
same,Ka,[27],1.22 10^5/M/s
same,Activity,[28],Non-Toxic
same,koff,[29],2.84 10^-2/s
same,koff,[30],1.14 10^-2/s
CCCCC#Cc1ccc(NC2CCN(C(=O)CC3CC3)CC2)c(C(N)=O)c1,IC50,[1],797 nM
CCCCC#Cc1ccc(NC2CCN(C(C)=O)CC2)c(C(N)=O)c1,IC50,[1],203 nM
same,logD,[2],3.24
same,solubility,[3],16 µg/mL
same,Papp,[4],94.6 ×10⁻⁶ cm/s
CCCCC#Cc1ccc(NCCCO)c(C(N)=O)c1,IC50,[1],2770 nM
CCCCC#Cc1ccc(NCC2CCN(C(C)=O)CC2)c(C(N)=O)c1,IC50,[1],4780 nM
CCCCC#Cc1ccc(NCC2CCN(C(=O)C3CC3)CC2)c(C(N)=O)c1,IC50,[1],2410 nM
CCCCC#Cc1ccc(NCC2CCOCC2)c(C(N)=O)c1,IC50,[1],393 nM
NC(=O)c1cc(C#CC2CC2)ccc1N[C@H]1CC[C@H](O)CC1,IC50,[1],251 nM
CC(C)CC#Cc1ccc(N[C@H]2CC[C@H](O)CC2)c(C(N)=O)c1,IC50,[1],313 nM
CCCCC#Cc1ccc(NC2CCOC2)c(C(N)=O)c1 (stereo not drawn),IC50,[1],310 nM
NC(=O)c1cc(C#CC2CCCCC2)ccc1N[C@H]1CC[C@H](O)CC1,IC50,[1],210 nM
CCCCC#Cc1ccc(NCC2CCOC2)c(C(N)=O)c1 (stereo not drawn),IC50,[1],947 nM
CCCCC#Cc1ccc(NCCCOC)c(C(N)=O)c1,IC50,[1],2060 nM
CCCCC#Cc1ccc(NCCOC)c(C(N)=O)c1,IC50,[1],10900 nM
CCCCC#Cc1ccc(NC2CCN(C(=O)C3CC3)CC2)c(C(N)=O)c1,IC50,[1],528 nM
CCCCC#Cc1ccc(NC2CCN(C(=O)CN3CCOCC3)CC2)c(C(N)=O)c1,IC50,[1],1490 nM
NC(=O)c1cc(C#CCCCCl)ccc1N[C@H]1CC[C@H](O)CC1,IC50,[1],205 nM
CCCCC#Cc1ccc(NC2CCCNC2)c(C(N)=O)c1 (stereo not drawn),IC50,[1],627 nM
CCCCC#Cc1ccc(NCCCOCC)c(C(N)=O)c1,IC50,[1],3310 nM
CCCCC#Cc1ccc(NC2CCCN(C(C)=O)C2)c(C(N)=O)c1 (stereo not drawn),IC50,[1],2040 nM
CC(C)NCCCn1c(Sc2cc(Cl)cc(Cl)c2)nc2c(N)ncnc21,Kd,[31],220 nM
same,Kd,[32],> 250000 nM
CCCCC#Cc1ccc(NC2CCOCC2)c(C(N)=O)c1,IC50,[1],234 nM
CCCCC#Cc1ccc(NCCOCC)c(C(N)=O)c1,IC50,[1],7540 nM
CCN(CC)CC#Cc1ccc(N[C@H]2CC[C@H](O)CC2)c(C(N)=O)c1,IC50,[1],> 100000 nM
CCCCC#Cc1ccc(NC2CCN(C(=O)CCN3CCOCC3)CC2)c(C(N)=O)c1,IC50,[1],985 nM
CCOc1ccccc1Cn1ccnc1CCc1c(Cl)c(O)cc(O)c1C(=O)OC,Kd,[32],8200 nM
NC(=O)c1cc(C#CC2CCCC2)ccc1N[C@H]1CC[C@H](O)CC1,IC50,[1],100 nM
CCCCC#Cc1ccc(NCCNC(C)=O)c(C(N)=O)c1,IC50,[1],2020 nM
CC(C)CCC#Cc1ccc(N[C@H]2CC[C@H](O)CC2)c(C(N)=O)c1,IC50,[1],519 nM
CCCCC#Cc1ccc(NCC2CCNCC2)c(C(N)=O)c1,IC50,[1],16600 nM
CC(C)C#Cc1ccc(N[C@H]2CC[C@H](O)CC2)c(C(N)=O)c1,IC50,[1],914 nM
CCCCC#Cc1ccc(NC2CCNCC2)c(C(N)=O)c1,IC50,[1],1610 nM
CC(C)(C)C#Cc1ccc(N[C@H]2CC[C@H](O)CC2)c(C(N)=O)c1,IC50,[1],325 nM

# Source: ChEMBL document CHEMBL5055629, “Design and synthesis of Grp94 selective inhibitors based on Phe199 induced fit mechanism and their anti-inflammatory effects” (Eur J Med Chem, 2021)
